Data on one compound can be found in EP3325012B1, “CINEOLE-CONTAINING COMPOSITION FOR TREATING NOSE POLYPS” (Maria Clementine Martin Klosterfrau Vertriebsgesellschaft …, priority 2015, dated 2017).

The test system of assay [1] is GSK-3. The experiment in a line: Immunohistochemistry, subcellular (endolysosomal) localisation of GSK-3. The format is cell-based, Mensch. To be noted: 100 µM, versus control medium (Figur 4B). The text has this:
Frische eingefrorene Gewebeschnitte wurden für 10 Minuten in 100 % Methanol fixiert. Nach einer Trocknungszeit von 10 Minuten wurden die Schnitte bei Raumtemperatur mit TBS (RT-TBS) gewaschen. Danach wurden die Gewebeproben zur Inhibition der endogenen Peroxidase 15 Minuten lang in RT-TBS mit 3 % H2O2 inkubiert.
Nach einem Waschschritt mit RT-TBS wurden die Proben in TBS mit 0,3 % Triton X für 15 Minuten permeabilisiert. Die Schnitte wurden in einer 1 : 100-Verdünnung mit Anti-Phospho-GSK-3-alpha/beta-Antikörpern (Cell Signaling Technology Inc., Massachusetts, USA, Katalognummern 5676 und 9331) über Nacht bei 4 °C inkubiert.
Am nächsten Tag wurden die Objektträger mit RT-TBS gewaschen und danach für 20 Minuten bei Raumtemperatur mit einem sekundären Polylink-Antikörper inkubiert. Nach dem Waschen mit RT-TBS wurden die Proben mit Peroxidase-Marker (HRP) (beide DCS Detection line, Innovative Diagnostik-Systeme, Hamburg, Deutschland) inkubiert.
Nach dem Waschen mit RT-PBS wurden die Schnitte in AEC (DCS Chromoline, Innovative Diagnostik-Systeme, Hamburg, Deutschland) inkubiert. Die Reaktion wurde mit RT-TBS gestoppt. Schließlich wurde eine Zellkernfärbung mit Mayer's Haematoxylin durchgeführt. Die Schnitte wurden in wässrigem "Dako Faramount Medium" (Dako North America Inc., Carpinteria, CA, USA) eingebettet. […]

The test system of assay [2] is Phosphokinasen. In words: Human Phospho-Kinase Antibody Array on nasal epithelial cells. The format is cell-based, Mensch. To be noted: 100 µM, 24 Stunden; epithelial cells from nasal polyps compared with epithelial cells from inferior turbinates. The text has this:
Pflanzliche Medikationen könnten diese Nebenwirkungen reduzieren. In der Naturheilkunde werden ätherische Öle aufgrund ihrer sekretolytischen Eigenschaften zur Behandlung von Menschen eingesetzt, die klinische Verwendung wird jedoch aufgrund von Reizungen der Atemwege nach Inhalation bzw. Aufnahme eingeschränkt. Der Hauptbestandteil von Eukalyptusöl, nämlich 1,8-Cineol, wurde zur Behandlung von akuter und chronischer Bronchitis, Sinusitis und respiratorischen Infekten eingesetzt und allgemein gut vertragen. Bei dem Monoterpen 1,8-Cineol handelt es sich um ein Isoprenoid mit antiinflammatorischen Eigenschaften, welches menschlichen Isoprenoiden, wie Glucocorticoid, ähnelt. Unlängst wurden seitens der Anmelderin neue Eigenschaften des Mechanismus von 1,8-Cineol in Epithelzellen des Nasenpolypengewebes von Patienten mit chronischer Rhinosinusitis entdeckt. Im Rahmen dieser Studien hat die Anmelderin Epithelzellen aus Nasenpolypen und Gewebe der unteren Nasenmuscheln von zahlreichen Patienten isoliert und über einen Zeitraum von 24 Stunden in 100 µM 1,8-Cineol inkubiert. Die Proteine wurden isoliert und die Phosphokinasen mit Hilfe des "Human Phospho-Kinase Antibody Array" von R&D Systems ermittelt. […]

In assay [3] the test system is HNSCC-Zelllinien. The experiment in a line: MTT assay, vitality and proliferation of HNSCC cell lines. Conditions: 1 mM bis 10 mM, 250 Stunden, two cell lines. The format is cell-based. As for the experimental part: (§1) Es wurden weiterführende Untersuchungen durchgeführt zur Analyse des Einflusses von Cineol auf die Vitalität und Proliferation verschiedener permanenter Zelllinien. Hierzu wurden einerseits die zwei HNSCC-Zelllinien und des Weiteren eine Fibroblastenzelllinie verwendet. Diese wurden über einen Zeitraum von 250 Stunden mit verschiedenen Cineol-Konzentrationen kultiviert (1 mM bis 10 mM) und die Vitalität der Zellen wurde jeweils mittels eines MTT-Assays untersucht.
In general terms: Tetrazolium dyes change colour on reduction, which living cells bring about.

The test system of assay [4] is Fibroblastenzelllinie. In words: MTT assay, vitality and proliferation of a fibroblast cell line. Conditions: 1 mM bis 10 mM, 250 Stunden. The format is cell-based. As for the experimental part: as §1

With `CC12CCC(CC1)C(C)(C)O2` [1,8-Cineol, 1,3,3-Trimethyl-2-oxabicyclo[2.2.2]octan], in assay [1], the “endolysosomale Lokalisierung von GSK-3” value is “verringerte endolysosomale Lokalisierung”. The “Expression von Phosphokinasen” value in assay [2] was “veränderte Expression”. Also, in assay [3], the “Progression und Vitalität von HNSCC” value is “inhibierender Einfluss”. In addition, the “Progression und Vitalität von Fibroblasten” value in assay [4] was “inhibierender Einfluss”.
